For 57 molecules, IC50 results are on record in PubChem BioAssay AID2834 (Southern Research Specialized Biocontainment Screening …, 2010).

A word on the pIC50: it is the IC50 on a negative log10 scale, so that one unit is a factor of ten. One may read the IC50 as the concentration that gives 50% inhibition.

Structures are written as SMILES. pIC50: −log10 of the molar value. Activity calls are given as the source filed them.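 The calls were made as follows: active = more than 40% inhibition of the growth reporter signal at one or more tested doses; inactive = below 40% inhibition at every dose.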 Where only a bound is given, the exact number is not on record here.

The subject of this test is S. Typhimurium nmpC-GFP reporter (non-PhoP growth counter-screen), low Mg2+, 4 h. As to the kind of experiment: nmpC-GFP reporter inhibition in S. Typhimurium, dose response, counter-screen for PhoP regulon inhibitor project, purified and synthesized compounds, set 2 (AID 2834). Background: Counterscreens check selectivity or assay interference.
Consider `O=C(Nc1cccnc1)c1cc(Br)c(Br)s1`, for which the negative-log IC50 (pIC50) is more than 6.82.
Consider `O=C1C2=C(Nc3ccccc3SC2c2ccccc2C(F)(F)F)c2ccccc21` (configuration not stated), for which the IC50 is > 150 µM (inactive).
On to `O=C1c2ccccc2C2=Nc3ccccc3SC(c3ccccc3F)C12` (configuration not stated), for which the pIC50 is more than 6.82.
Regarding `COc1ccc(CNC(=S)Nc2ccncc2)cc1`, the IC50 was > 150 µM (inactive).
As for `O=S(=O)(Nc1c(S(=O)(=O)c2ccccc2)c2nc3ccccc3nc2n1C1CCCCC1)c1ccccc1`, the pIC50 is more than 6.82.
As for `O=C(O)c1cn(-c2ccc(F)cc2)c2cc(Cl)c(F)cc2c1=O`, the pIC50 was more than 6.82.
Consider `CN1CCc2nc(SCC(=O)Nc3cccc(F)c3)c(C#N)c(-c3cccs3)c2C1`, for which the negative-log IC50 (pIC50) was more than 6.82.
Regarding `N#C/C(=C\c1ccc[nH]1)C(=O)NC1CC1`, the pIC50 was more than 6.82.
In the case of `O=C(Nc1ccccc1)N1CCCN(Cc2ccccc2F)C1`, the IC50 was > 150 µM (inactive).
On the same count and under the same terms, in the case of `O=C1C2=C(Nc3ccccc3SC2c2ccccc2Br)c2ccccc21` (configuration not stated) it was > 150 µM (inactive); in that of `CCn1cc(C(=O)O)c(=O)c2cc(F)c(N3CCN(C(=S)NC)CC3)cc21`, > 150 µM (inactive); in that of `S=C(NCc1ccc(Cl)cc1)Nc1cccc(Cl)c1`, > 150 µM (inactive).
As for `CCn1cc(C(=O)O)c(=O)c2cc(F)c(N3CCN(C(=S)NC(=O)c4ccccc4Cl)CC3)cc21`, the negative-log IC50 (pIC50) is more than 6.82.
Take `O=c1c2ccccc2[nH]c2ccc(F)cc12`: the pIC50 was more than 6.82.
Regarding `COc1ccccc1NC(=O)N1CCCN(Cc2ccccc2F)C1`, the IC50 is > 150 µM (inactive).
Regarding `CCn1cc(C(=O)O)c(=O)c2cc(F)c(N3CCN(C(=S)NC(=O)c4ccccc4F)CC3)cc21`, the negative logarithm of the IC50 (pIC50) is more than 6.82.
With `O=[N+]([O-])c1ccc(CNC2CCCc3ccccc32)cc1` (configuration not stated), the pIC50 was more than 6.82.
Regarding `COc1cccc(C2Sc3ccccc3NC3=C2C(=O)c2ccccc23)c1` (configuration not stated), the IC50 is > 150 µM (inactive).
As to `COc1ccc(NC(=O)c2cc(Br)c(Br)s2)cn1`, the pIC50 was more than 6.82.
Turning to `O=C1C2=C(Nc3ccccc3SC2c2cccc(Cl)c2)c2ccccc21` (configuration not stated), the IC50 was > 150 µM (inactive).
On to `O=C1C2=C(Nc3ccccc3SC2c2ccc(C(F)(F)F)cc2)c2ccccc21` (configuration not stated), for which the IC50 was > 150 µM (inactive).
Consider `Fc1ccccc1NC(=S)NCc1ccc(Cl)cc1`, for which the IC50 was > 150 µM (inactive).
Take `C1=C(CCNc2ncnc3c2[nH]c2ccccc23)CCCC1`: the pIC50 is more than 6.82.
For the molecule `O=C(Nc1ccc(Br)cc1)N1CCCN(Cc2ccccc2F)C1`, the IC50 is > 150 µM (inactive).
With `O=C(NCc1ccccc1)N1CCCN(Cc2ccccc2F)C1`, the IC50 is > 150 µM (inactive).
As for `COc1ccccc1Nc1nc(NCc2ccco2)c2ccccc2n1`, the pIC50 is more than 6.82.
`S=C(NCc1ccc(Cl)cc1)Nc1ccc(Cl)cc1`: the IC50 was > 150 µM (inactive).
With `CCn1cc(C(=O)O)c(=O)c2cc(F)c(N3CCN(C(=S)Nc4ccccc4C(F)(F)F)CC3)cc21`, the pIC50 is 4.12.
Regarding `CN1CCN(C2=Cc3cc(Cl)ccc3Sc3cc(F)ccc32)CC1`, the negative logarithm of the IC50 (pIC50) is more than 6.82.
As for `S=C(NCc1ccccc1Cl)Nc1ccncc1`, the IC50 was > 150 µM (inactive).
Consider `CN(C)CCCN(C(=O)CCc1ccccc1)c1nc2ccc(Cl)cc2s1`, for which the pIC50 was more than 6.82.
Take `Cc1ccc(CN2CCCN(C(=O)Nc3ccc(Cl)cc3)C2)cc1`: the IC50 was > 150 µM (inactive).
In the case of `CCCCn1c(NS(=O)(=O)c2ccccc2)c(S(=O)(=O)c2ccc(C)cc2)c2nc3ccccc3nc21`, the pIC50 was more than 6.82.
As to `CCn1cc(C(=O)O)c(=O)c2cc(F)c(N3CCN(C(=S)Nc4ccc(Cl)cc4)CC3)cc21`, the pIC50 is 3.88.
Turning to `COc1ccc(NC(=S)NCc2ccc(Cl)cc2)cc1`, the IC50 was > 150 µM (inactive).
On to `O=C(Nc1ccccc1)N1CCCN(Cc2ccc(F)cc2)C1`, for which the IC50 was > 150 µM (inactive).
As for `COc1c(N2CCN(C(=S)NCc3ccccc3)C(C)C2)c(F)cc2c(=O)c(C(=O)O)cn(C3CC3)c12` (configuration not stated), the pIC50 was more than 6.82.
For `CCCCn1c(NS(=O)(=O)c2ccc(C)cc2)c(S(=O)(=O)c2ccccc2)c2nc3ccccc3nc21`, the pIC50 is more than 6.82.
Take `S=C(NCc1ccc(Cl)cc1)Nc1ccc(Br)cc1`: the IC50 was > 150 µM (inactive).
As to `CCn1cc(C(=O)O)c(=O)c2cc(F)c(N3CCN(C(=S)NCc4ccccc4)CC3)cc21`, the IC50 is > 150 µM (inactive).
With `CSc1nc2cc(Oc3cccc(Cl)c3Cl)c(Cl)cc2[nH]1`, the pIC50 was more than 6.82.
Regarding `S=C(NCc1ccc(Cl)cc1)Nc1cccnc1`, the IC50 was > 150 µM (inactive).
For the molecule `O=C1C2=C(Nc3ccccc3SC2c2ccco2)c2ccccc21` (configuration not stated), the pIC50 is more than 6.82.
Regarding `Cc1cccc(NC(=S)NCc2ccc(Cl)cc2)c1`, the IC50 was > 150 µM (inactive).
In the case of `CCCCCNC(=O)c1cn(CC)c2cc(N3CCN(C)CC3)c(F)cc2c1=O`, the pIC50 is more than 6.82.
Regarding `O=C(Nc1nnc(-c2cccs2)o1)c1cccc(C(F)(F)F)c1`, the pIC50 is more than 6.82.
For the molecule `Cc1ccc(Nc2cc(C)c3c(O)cccc3n2)cc1C`, the pIC50 is more than 6.82.
Consider `O=C(Nc1ccc(Cl)cc1)N1CCCN(Cc2ccccc2F)C1`, for which the pIC50 was more than 6.82.
For `O=C(Nc1ccc(Cl)cc1)N1CCCN(Cc2ccc(F)cc2)C1`, the IC50 is > 150 µM (inactive).
Same read-out and setting: to `O=C1C2=C(Nc3ccccc3SC2c2ccccc2Cl)c2ccccc21` (configuration not stated) belongs > 150 µM (inactive); to `COc1cccc(NC(=S)NCc2ccc(Cl)cc2)c1`, > 150 µM (inactive); to `Cc1ccc(NC(=S)NCc2ccc(Cl)cc2)cc1`, > 150 µM (inactive).
With `CCOc1ccc(NC(=S)N2CCN(c3cc4c(cc3F)c(=O)c(C(=O)O)cn4CC)CC2)cc1`, the IC50 is > 150 µM (inactive).
Still for that read-out and setting: to `CCn1cc(C(=O)O)c(=O)c2cc(F)c(N3CCN(C(=S)Nc4ccccc4C)CC3)cc21` belongs > 150 µM (inactive).
In the case of `CCn1cc(C(=O)O)c(=O)c2cc(F)c(N3CCN(C(=S)Nc4ccccc4Cl)CC3)cc21`, the IC50 is > 150 µM (inactive).
Regarding `O=C1C2=C(Nc3ccccc3SC2c2ccsc2)c2ccccc21` (configuration not stated), the IC50 is > 150 µM (inactive).
As to `O=C(Nc1ccccc1Cl)N1CCCN(Cc2ccccc2F)C1`, the IC50 was > 150 µM (inactive).
